Measured values from article PMC10033419, “Blocking NS3–NS4B interaction inhibits dengue virus in non-human primates” (Nature, 2023).
“And” between values parts separate entries of the source, which are not always exact repeats. Identical values can stand only once. Like-named read-outs stand apart in the source and are kept apart here.

System: DENV-2 RL
Assay: microbe, parasite or virus in culture
Format: cell-based
Conditions: Dengue virus, DENV2, Vero

Question: What does the source list for COc1cc(N[C@H](C(=O)c2c[nH]c3ccc(OC(F)(F)F)cc23)c2ccc(Cl)cc2OC)cc(S(C)(=O)=O)c1 [JNJ-1802]?
Answer: EC50 (read-out: EC50 values Ave, B sample, passage 8): 0.126 nM; EC50 (read-out: EC50 values Ave, B sample, passage 9): 0.126 nM; EC50 (read-out: EC50 values Ave, B sample, passage 10): 0.126 nM; EC50 (read-out: EC50 values Ave, B sample, passage 11): 0.000146 µg/mL and 0.251 nM; EC50 (read-out: EC50 values Ave, B sample, passage 12): 0.000146 µg/mL and 0.251 nM; EC50 (read-out: EC50 values Ave, B sample, passage 13): 0.000293 µg/mL and 0.503 nM; EC50 (read-out: EC50 values Ave, B sample, passage 14): 0.126 nM; EC50 (read-out: EC50 values Ave, B sample, passage 15): 0.126 nM; EC50 (read-out: EC50 values Ave, B sample, passage 16): 0.000146 µg/mL and 0.251 nM; EC50 (read-out: EC50 values Ave, B sample, passage 17): 0.000146 µg/mL and 0.251 nM; EC50 (read-out: EC50 values Ave, B sample, passage 18): 0.000146 µg/mL and 0.251 nM; EC50 (read-out: EC50 values Ave, B sample, passage 19): 0.000293 µg/mL and 0.503 nM; EC50 (read-out: EC50 values Ave, B sample, passage 20): 0.000293 µg/mL and 0.503 nM; EC50 (read-out: EC50 values Ave, B sample, passage 21): 0.000293 µg/mL and 0.503 nM; EC50 (read-out: EC50 values Ave, B sample, passage 22): 0.000293 µg/mL and 0.503 nM; EC50 (read-out: EC50 values Ave, B sample, passage 23): 1.01 nM; EC50 (read-out: EC50 values Ave, B sample, passage 24): 0.00117 µg/mL and 2.01 nM; EC50 (read-out: EC50 values Ave, B sample, passage 25): 0.00234 µg/mL and 4.02 nM; EC50 (read-out: EC50 values Ave, B sample, passage 26): 0.00469 µg/mL and 8.04 nM; EC50 (read-out: EC50 values Ave, B sample, passage 27): 0.00469 µg/mL and 8.04 nM; EC50 (read-out: EC50 values Ave, B sample, passage 28): 0.00469 µg/mL and 8.04 nM; EC50 (read-out: EC50 values Ave, B sample, passage 31): 0.0234 µg/mL and 40.2 nM; EC50 (read-out: EC50 values Ave, B sample, passage 32): 0.0234 µg/mL and 40.2 nM; EC50 (read-out: EC50 values Ave, B sample, passage 33): 0.0469 µg/mL and 80.4 nM; EC50 (read-out: EC50 values Ave, B sample, passage 34): 0.0469 µg/mL and 80.4 nM; EC50 (read-out: EC50 values Ave, B sample, passage 35): 0.0469 µg/mL and 80.4 nM; EC50 (read-out: EC50 values Ave, B sample, passage 36): 0.0469 µg/mL and 80.4 nM; EC50 (read-out: EC50 values Ave, B sample, passage 37): 0.0469 µg/mL and 80.4 nM; EC50 (read-out: EC50 values Ave, B sample, passage 38): 0.0469 µg/mL and 80.4 nM; EC50 (read-out: EC50 values Ave, B sample, passage 39): 0.0938 µg/mL and 161 nM; EC50 (read-out: EC50 values Ave, B sample, passage 40): 322 nM; EC50 (read-out: EC50 values Ave, B sample, passage 41): 0.375 µg/mL and 643 nM; EC50 (read-out: EC50 values Ave, B sample, passage 42): 0.375 µg/mL and 643 nM; EC50 (read-out: EC50 values Ave, B sample, passage 43): 0.375 µg/mL and 643 nM; EC50 (read-out: EC50 values Ave, B sample, passage 44): 0.375 µg/mL and 643 nM; EC50 (read-out: EC50 values Ave, B sample, passage 45): 0.375 µg/mL and 643 nM; EC50 (read-out: EC50 values Ave, B sample, passage 46): 0.375 µg/mL and 643 nM; EC50 (read-out: EC50 values Ave, B sample, passage 47): 0.375 µg/mL and 643 nM; EC50 (read-out: EC50 values Ave, B sample, passage 48): 1290 nM; EC50 (read-out: EC50 values Ave, B sample, passage 49): 1290 nM; EC50 (read-out: EC50 values Ave, B sample, passage 50 (END)): 1290 nM; EC50 (read-out: EC50 values [Well 1], A sample, passage 1): 0.049 ng/mL; EC50 (read-out: EC50 values [Well 1], A sample, passage 2): 0.049 ng/mL; EC50 (read-out: EC50 values [Well 1], A sample, passage 3): 0.049 ng/mL; EC50 (read-out: EC50 values [Well 1], A sample, passage 4): 0.049 ng/mL; EC50 (read-out: EC50 values [Well 1], A sample, passage 5): 0.049 ng/mL; EC50 (read-out: EC50 values [Well 1], A sample, passage 7): 0.049 ng/mL; EC50 (read-out: EC50 values [Well 1], A sample, passage 8): 0.049 ng/mL; EC50 (read-out: EC50 values [Well 1], A sample, passage 10): 0.195 ng/mL; EC50 (read-out: EC50 values [Well 1], A sample, passage 11): 0.195 ng/mL; EC50 (read-out: EC50 values [Well 1], A sample, passage 12): 0.195 ng/mL; EC50 (read-out: EC50 values [Well 1], A sample, passage 13): 0.391 ng/mL; EC50 (read-out: EC50 values [Well 1], A sample, passage 16): 1.56 ng/mL; EC50 (read-out: EC50 values [Well 1], A sample, passage 17): 3.13 ng/mL; EC50 (read-out: EC50 values [Well 1], A sample, passage 18): 6.25 ng/mL; EC50 (read-out: EC50 values [Well 1], A sample, passage 20): 25 ng/mL; EC50 (read-out: EC50 values [Well 1], A sample, passage 21): 25 ng/mL; EC50 (read-out: EC50 values [Well 1], A sample, passage 22): 25 ng/mL; EC50 (read-out: EC50 values [Well 1], A sample, passage 23): 25 ng/mL; EC50 (read-out: EC50 values [Well 1], A sample, passage 24): 50 ng/mL; EC50 (read-out: EC50 values [Well 1], A sample, passage 25): 50 ng/mL; EC50 (read-out: EC50 values [Well 1], A sample, passage 26): 100 ng/mL; EC50 (read-out: EC50 values [Well 1], A sample, passage 27): 200 ng/mL; EC50 (read-out: EC50 values [Well 1], A sample, passage 28): 200 ng/mL; EC50 (read-out: EC50 values [Well 1], A sample, passage 29): 200 ng/mL; EC50 (read-out: EC50 values [Well 1], A sample, passage 30): 200 ng/mL; EC50 (read-out: EC50 values [Well 1], A sample, passage 31): 100 ng/mL
